Test results reported in patent US20150307938A1, “METHOD TO IDENTIFY A NOVEL CLASS OF IMMUNOLOGIC ADJUVANTS” (Lancell, L.L.C., priority 2011, published 2015).

Key:
skin dendritic cells = test: Flow cytometric analysis of Ahr−/− response to topical DBP; settings: topical application
skin = test: Affymetrix microarray of skin, DBP-4 hr and analogs vs. untreated; gene selection by log-2 fold change, Wilcoxon, Kendall tau (Tables 8, 9); assay type: in vivo, mouse

O=[N+]([O-])c1ccc(F)c([N+](=O)[O-])c1 [dinitrofluorobenzene, reference compound]
skin dendritic cell response in AhR−/− mice (skin dendritic cells): severely impaired

CC(C)=O [Acetone]
Log2 Expression Level (skin; gene #1 of Table 8): 5.63
Log2 Expression Level (skin; gene #2 of Table 8): 7.13
Log2 Expression Level (skin; gene #3 of Table 8): 8.73
Log2 Expression Level (skin; gene #4 of Table 8): 8.73
Log2 Expression Level (skin; gene #5 of Table 8): 6.36
Log2 Expression Level (skin; gene #6 of Table 8): 5.62
Log2 Expression Level (skin; gene #7 of Table 8): 5.07
Log2 Expression Level (skin; gene #8 of Table 8): 5.62
Log2 Expression Level (skin; gene #9 of Table 8): 5.62
Log2 Expression Level (skin; gene #10 of Table 8): 5.62
Log2 Expression Level (skin; gene #11 of Table 8): 5.07
Log2 Expression Level (skin; gene #12 of Table 8): 5.07
Log2 Expression Level (skin; gene #13 of Table 8): 5.07
Log2 Expression Level (skin; gene #14 of Table 8): 4.90
Log2 Expression Level (skin; gene #15 of Table 8): 4.90
Log2 Expression Level (skin; gene #16 of Table 8): 6.15
Log2 Expression Level (skin; gene #17 of Table 8): 8.79
Log2 Expression Level (skin; gene #18 of Table 8): 8.79
Log2 Expression Level (skin; gene #19 of Table 8): 8.22
Log2 Expression Level (skin; gene #20 of Table 8): 7.12
Log2 Expression Level (skin; gene #21 of Table 8): 7.81
Log2 Expression Level (skin; gene #22 of Table 8): 7.76
Log2 Expression Level (skin; gene #23 of Table 8): 5.76
Log2 Expression Level (skin; gene #24 of Table 8): 6.97
Log2 Expression Level (skin; gene #25 of Table 8): 6.97
Log2 Expression Level (skin; gene #26 of Table 8): 6.97
Log2 Expression Level (skin; gene #27 of Table 8): 6.97
Log2 Expression Level (skin; gene #28 of Table 8): 6.97
Log2 Expression Level (skin; gene #29 of Table 8): 4.96
Log2 Expression Level (skin; gene #30 of Table 8): 8.52
Log2 Expression Level (skin; gene #31 of Table 8): 8.52
Log2 Expression Level (skin; gene #32 of Table 8): 8.52
Log2 Expression Level (skin; gene #33 of Table 8): 5.65
Log2 Expression Level (skin; gene #34 of Table 8): 6.46
Log2 Expression Level (skin; gene #35 of Table 8): 6.46
Log2 Expression Level (skin; gene #36 of Table 8): 8.73
Log2 Expression Level (skin; gene #37 of Table 8): 8.73
Log2 Expression Level (skin; gene #38 of Table 8): 8.73
Log2 Expression Level (skin; gene #39 of Table 8): 7.16
Log2 Expression Level (skin; gene #40 of Table 8): 7.23
Log2 Expression Level (skin; gene #41 of Table 8): 7.42
Log2 Expression Level (skin; gene #42 of Table 8): 7.03
Log2 Expression Level (skin; gene #43 of Table 8): 7.03
Log2 Expression Level (skin; gene #44 of Table 8): 7.42
Log2 Expression Level (skin; gene #45 of Table 8): 7.03
Log2 Expression Level (skin; gene #46 of Table 8): 7.42
Log2 Expression Level (skin; gene #47 of Table 8): 7.47
Log2 Expression Level (skin; gene #48 of Table 8): 7.47
Log2 Expression Level (skin; gene #49 of Table 8): 7.47
Log2 Expression Level (skin; gene #50 of Table 8): 7.97
Log2 Expression Level (skin; gene #51 of Table 8): 7.28
Log2 Expression Level (skin; gene #52 of Table 8): 9.55
Log2 Expression Level (skin; gene #53 of Table 8): 7.74
Log2 Expression Level (skin; gene #54 of Table 8): 9.23
Log2 Expression Level (skin; gene #55 of Table 8): 6.67
Log2 Expression Level (skin; gene #56 of Table 8): 8.58
Log2 Expression Level (skin; gene #57 of Table 8): 8.52
Log2 Expression Level (skin; gene #58 of Table 8): 8.50
Log2 Expression Level (skin; gene #59 of Table 8): 8.28
Log2 Expression Level (skin; gene #60 of Table 8): 6.59
Log2 Expression Level (skin; gene #61 of Table 8): 11.19
Log2 Expression Level (skin; gene #62 of Table 8): 7.64
Log2 Expression Level (skin; gene #63 of Table 8): 10.28
Log2 Expression Level (skin; gene #64 of Table 8): 10.06
Log2 Expression Level (skin; gene #65 of Table 8): 6.46
Log2 Expression Level (skin; gene #66 of Table 8): 7.87
Log2 Expression Level (skin; gene #67 of Table 8): 4.12
Log2 Expression Level (skin; gene #68 of Table 8): 6.73
Log2 Expression Level (skin; gene #69 of Table 8): 4.99
Log2 Expression Level (skin; gene #70 of Table 8): 4.18
Log2 Expression Level (skin; gene #71 of Table 8): 6.68
Log2 Expression Level (skin; gene #72 of Table 8): 7.93
Log2 Expression Level (skin; gene #73 of Table 8): 5.55
Log2 Expression Level (skin; gene #74 of Table 8): 7.00
Log2 Expression Level (skin; gene #75 of Table 8): 8.22
Log2 Expression Level (skin; gene #76 of Table 8): 4.30
Log2 Expression Level (skin; gene #77 of Table 8): 8.48
Log2 Expression Level (skin; gene #78 of Table 8): 9.31
Log2 Expression Level (skin; gene #79 of Table 8): 6.49
Log2 Expression Level (skin; gene #80 of Table 8): 12.42
Log2 Expression Level (skin; gene #81 of Table 8): 5.50
Log2 Expression Level (skin; gene #82 of Table 8): 5.03
Log2 Expression Level (skin; gene #83 of Table 8): 6.32
Log2 Expression Level (skin; gene #84 of Table 8): 6.04
Log2 Expression Level (skin; gene #85 of Table 8): 4.71
Log2 Expression Level (skin; gene #86 of Table 8): 6.08
Log2 Expression Level (skin; gene #87 of Table 8): 8.85
Log2 Expression Level (skin; gene #88 of Table 8): 4.54
Log2 Expression Level (skin; gene #89 of Table 8): 5.23
Log2 Expression Level (skin; gene #90 of Table 8): 9.45
Log2 Expression Level (skin; gene #91 of Table 8): 6.14
Log2 Expression Level (skin; gene #92 of Table 8): 6.80
Log2 Expression Level (skin; gene #93 of Table 8): 8.25
Log2 Expression Level (skin; gene #94 of Table 8): 7.10
Log2 Expression Level (skin; gene #95 of Table 8): 4.96
Log2 Expression Level (skin; gene #96 of Table 8): 6.62
Log2 Expression Level (skin; gene #97 of Table 8): 5.16
Log2 Expression Level (skin; gene #98 of Table 8): 4.29
Log2 Expression Level (skin; gene #99 of Table 8): 8.55
Log2 Expression Level (skin; gene #100 of Table 8): 6.49
